One assay relates to KMS-11. Briefly: Cytostatic activity on human multiple myeloma cell line KMS-11 (WST-1). Type of assay: cell-based. The following applies: 72 hours; for inhibition at 10 µM / inhibition at 1 µM: Homo sapiens, KMS-11, 72 h; for inhibition at 10 µM: 10 μmol/L, read-out: cytostatic rate (%) KMS-11 (10 μmol/L); for inhibition at 1 µM / cytostatic rate (%) KMS-11 (1 μmol/L): 1 μmol/L; for inhibition at 1 µM: read-out: cytostatic rate (%) KMS-11 (1 μmol/L). In short, it runs like this:
(§1)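 Cells pre-cultured 24 h at 37 °C, 5% CO2, then exposed 72 h to compound at final 1 or 10 μmol/L (0.1% DMSO). WST-1 added for 2 h, absorbance at 450 nm (ref 690 nm). Cytostatic rate = 100 minus relative growth, with DMSO control as 100% and blank as 0%.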
For orientation: Tetrazolium assays rely on reduction of a dye to a coloured formazan, in cell work by metabolically active cells.

Another assay has as its target T1, IGF-1R (Homo sapiens, UniProt P08069).
T1 construct: purchased Upstate Co. 14-465
Briefly: IGF-1R inhibitory activity (kinase reaction, time-resolved fluoroimmunoassay). Type of assay: biochemical. The conditions noted are these: IGF-1R active recombinant enzyme, test compound 10 μmol/L. In short, it runs like this: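 Compounds were tested at a single 10 μmol/L concentration. Each was incubated with recombinant IGF-1R (200 μg/L), 10 mmol/L ATP, MgCl2/MnCl2 and Na3VO4 (pH 7.5) on immobilized poly(Glu-Tyr) peptide for 30 min at 24° C. Eu-anti-phosphotyrosine time-resolved fluorescence (340/615 nm) gave relative activity against no-compound and no-enzyme wells, reported as % inhibition.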

A further assay deals with NCI-H929. Briefly: Cytostatic activity on human multiple myeloma cell line NCI-H929 (WST-1). Type of assay: cell-based. The conditions noted are these: 72 hours; for inhibition at 10 µM / inhibition at 1 µM: Homo sapiens, NCI-H929, 72 h; for inhibition at 10 µM: 10 μmol/L, read-out: cytostatic rate (%) H929 (10 μmol/L); for inhibition at 1 µM / cytostatic rate (%) H929 (1 μmol/L): 1 μmol/L; for inhibition at 1 µM: read-out: cytostatic rate (%) H929 (1 μmol/L). In outline:
as §1

The next assay has as its system Colo205. Briefly: Cytostatic activity on human colon cancer cell line Colo205 (WST-1). The conditions noted are these: 10 μmol/L; for inhibition at 10 µM: Homo sapiens, COLO 205, 72 h, read-out: cytostatic rate (%) Colo205 (10 μmol/L); for cytostatic rate (%) Colo205 (10 μmol/L): 72 hours. Type of assay: cell-based. How it is done:
(§2) The cytostatic rates of the test compound on the human pancreatic cancer cell line AsPC-1 and the human colon cancer cell line Colo205 were determined in the following manner.
(§3) For culturing AsPC-1, RPMI 1640 medium containing 20% fetal bovine serum, 1 mmol/L sodium pyruvate, 10 mmol/L HEPES, 4.5 g/L glucose and penicillin/streptomycin (1:1). The Colo205 cell was cultured using RPMI 1640 medium containing 10% fetal bovine serum, 1 mmol/L sodium pyruvate, 10 mmol/L HEPES, 4.5 g/L glucose and penicillin/streptomycin (1:1) was used. Each 80 μL of the AsPC-1 cell having a concentration of 5×10^4 cells/mL (or the Colo205 having a concentration of 5×10^4 cells/mL) was inoculated to wells of a TC MICROWELL 96F plate (Nalge Nunc International, Catalog No. 167008) and was cultured in a 5% carbon dioxide gas incubator at 37° C. for 24 hours. Each 20 μL of a solution of the test compound in DMSO which was prepared to make the final concentration to 1 μmol/L or 10 μmol/L, was added to each well. Each 20 μL of DMSO was added to the control well and the blank well to a final concentration of 0.1%. After adding the test compound, the cell was incubated in a 5% carbon dioxide gas incubator at 37° C. for 72 hours except for the blank well. After adding 20 μL of WST-1 reagent which was diluted to 50% by RPMI medium to each well, the cells were further incubated at 37° C. for 2 hours. Then, the absorbances at 450 nm (reference wavelength: 690 nm) were determined with a microplate spectrophotometer SPECTRA max 340PC. The cytostatic rate (%) was then determined in the similar manner to the above multiple myeloma cell lines.

Another assay concerns AsPC-1. The assay can be described thus: Cytostatic activity on human pancreatic cancer cell line AsPC-1 (WST-1). Type of assay: cell-based. The conditions noted are these: 10 μmol/L; for inhibition at 10 µM: Homo sapiens, ASPC1, 72 h, read-out: cytostatic rate (%) AsPC-1 (10 μmol/L); for cytostatic rate (%) AsPC-1 (10 μmol/L): 72 hours. How it is done:
as §2, §3

Counter-ions that a name gives are not always drawn.

The source of these data is patent US7605272B2, “IGF-1R inhibitor” (Kyowa Hakko Kirin Co., Ltd., priority 2005, dated 2009).

T1 sequence (P08069 959-1367 limits assumed): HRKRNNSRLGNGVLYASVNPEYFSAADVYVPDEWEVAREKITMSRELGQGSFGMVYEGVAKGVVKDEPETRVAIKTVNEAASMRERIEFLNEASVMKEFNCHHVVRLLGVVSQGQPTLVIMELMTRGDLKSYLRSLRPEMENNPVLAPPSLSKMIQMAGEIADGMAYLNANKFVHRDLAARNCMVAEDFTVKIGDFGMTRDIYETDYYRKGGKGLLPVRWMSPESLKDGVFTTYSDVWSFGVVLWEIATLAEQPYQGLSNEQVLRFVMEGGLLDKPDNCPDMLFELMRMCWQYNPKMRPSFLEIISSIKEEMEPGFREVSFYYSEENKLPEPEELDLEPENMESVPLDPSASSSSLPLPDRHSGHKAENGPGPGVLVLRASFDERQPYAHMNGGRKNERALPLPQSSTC

As for `Nc1cccc2c1C(=O)N(c1cc3c(cc1/C=C/c1n[nH]c4ccccc14)OCO3)C2=O` [Compound 152, (E)-4-amino-2-{6-[2-(1H-indazol-3-yl)vinyl]benzo[1,3]dioxol-5-yl}isoindole-1,3-dione], the inhibition at 10 µM in the assay with KMS-11 is 116%; at IGF-1R, 99.5%; in the assay on NCI-H929, 122%; with Colo205, 86.7%; in the assay on AsPC-1, 72.1%.

In the case of `Nc1ccc2c(c1)C(=O)N(c1cc3c(cc1/C=C/c1n[nH]c4ccccc14)OCO3)C2=O` [Compound 153, (E)-5-amino-2-{6-[2-(1H-indazol-3-yl)vinyl]benzo[1,3]dioxol-5-yl}isoindole-1,3-dione], the inhibition at 10 µM came to 129% with KMS-11; 99.8% on IGF-1R; 122% in the assay on NCI-H929; 114% in the assay with Colo205; 77% with AsPC-1.

`Nc1cccc2c1C(=O)N(c1ccccc1/C=C/c1n[nH]c3ccccc13)C2=O` [Compound 194, (E)-4-amino-2-{2-[2-(1H-indazol-3-yl)vinyl]phenyl}isoindole-1,3-dione]: the inhibition at 10 µM is 143% with KMS-11; 102% on IGF-1R; 119% in the assay on NCI-H929; 97.9% with Colo205; 75.3% with AsPC-1.

With `CN(C(=O)c1ccc[nH]1)c1cc(C(=O)N2CCOCC2)ccc1/C=C/c1n[nH]c2ccccc12` [Compound 217, (E)-N-{2-[2-(1H-indazol-3-yl)vinyl]-5-(morpholin-4-ylcarbonyl)phenyl}-N-methylpyrrole-2-carboxamide hydrochloride], the results for the inhibition at 1 µM in the assay on KMS-11 and in the assay with NCI-H929 were 128% and 113%, respectively. The figures for the inhibition at 10 µM on IGF-1R, with Colo205 and with AsPC-1 were 96.6%, 122% and 91.9%, respectively.

Regarding `Cc1ccsc1C(=O)Nc1cc(C(=O)N2CCN(S(C)(=O)=O)CC2)ccc1/C=C/c1n[nH]c2ccccc12` [Compound 222, (E)-N-{2-[2-(1H-indazol-3-yl)vinyl]-5-(4-methanesulfonylpiperazin-1-ylcarbonyl)phenyl}-3-methylthiophene-2-carboxamide hydrochloride], the results for the inhibition at 1 µM with KMS-11 and in the assay on NCI-H929 were 108% and 118%, respectively. Moreover, the inhibition at 10 µM at IGF-1R amounted to 98.7%; with Colo205, 123%; in the assay on AsPC-1 it was 114%.

Turning to `Cc1ccsc1C(=O)Nc1cc(CN2CC[C@@H](N)C2)ccc1/C=C/c1n[nH]c2ccccc12` [Compound 233, (R)-(E)-N-{5-(3-aminopyrrolidin-1-ylmethyl)-2-[2-(1H-indazol-3-yl)vinyl]phenyl}-3-methylthiophene-2-carboxamide], the results for the inhibition at 1 µM in the assay on KMS-11 and in the assay with NCI-H929 were 102% and 118%, respectively. In addition, the inhibition at 10 µM on IGF-1R came to 106%; in the assay on Colo205, 123%; in the assay with AsPC-1 it was 89.1%.

Regarding `Cc1ccsc1C(=O)Nc1cc(CN2CCN(CCO)CC2)ccc1/C=C/c1n[nH]c2ccccc12` [Compound 239, (E)-N-{5-[4-(2-hydroxyethyl)piperazin-1-ylmethyl]-2-[2-(1H-indazol-3-yl)vinyl]phenyl}-3-methylthiophene-2-carboxamide], the inhibition at 1 µM in the assay on KMS-11 stood at 152%; in the assay with NCI-H929 it was 115%. Moreover, the inhibition at 10 µM was determined as 101% on IGF-1R, 121% in the assay with Colo205 and 102% in the assay on AsPC-1.

For `COCCN(CCN(C)C)C(=O)c1ccc(/C=C/c2n[nH]c3ccccc23)c(NC(=O)c2sccc2C)c1` [Compound 241, (E)-N-{5-[N-(2-dimethylaminoethyl)-N-(2-methoxyethyl)carbamoyl]-2-[2-(1H-indazol-3-yl)vinyl]phenyl}-3-methylthiophene-2-carboxamide hydrochloride], the inhibition at 1 µM was 118% with KMS-11 and 112% in the assay on NCI-H929. In addition, the inhibition at 10 µM on IGF-1R was 101%; in the assay with Colo205 it was 121%; in the assay with AsPC-1 it was 104%.

In the case of `Cc1ccsc1C(=O)Nc1cc(CN2CCNCC2)ccc1/C=C/c1n[nH]c2ccccc12` [Compound 242], the “cytostatic rate (%) KMS-11 (1 μmol/L)” value in the assay on KMS-11 is 106.8%. In addition, the “inhibitory activity (%) at 10 μmol/L” value at IGF-1R was found to be 102.1%. Further, in the assay with NCI-H929, the “cytostatic rate (%) H929 (1 μmol/L)” value amounted to 111.1%. Besides, the “cytostatic rate (%) Colo205 (10 μmol/L)” value in the assay on Colo205 is 119.7%. Also, the “cytostatic rate (%) AsPC-1 (10 μmol/L)” value in the assay with AsPC-1 was determined as 87.1%.

Consider `Cc1ccsc1C(=O)Nc1cc(CNCCN2CCOCC2)ccc1/C=C/c1n[nH]c2ccccc12` [Compound 245, (E)-N-{2-[2-(1H-indazol-3-yl)vinyl]-5-[2-(morpholin-4-yl)ethylaminomethyl]phenyl}-3-methylthiophene-2-carboxamide], for which the inhibition at 1 µM stood at 118% in the assay with KMS-11 and 126% in the assay on NCI-H929. The figures for the inhibition at 10 µM at IGF-1R, in the assay on Colo205 and in the assay with AsPC-1 were 99.9%, 121% and 102%, respectively.

For the compound `Cc1ccsc1C(=O)Nc1cc(N2CCOCC2)ccc1/C=C/c1n[nH]c2ccccc12` [Compound 247, (E)-N-{2-[2-(1H-indazol-3-yl)vinyl]-5-morpholin-4-ylphenyl}-3-methylthiophene-2-carboxamide monohydrochloride], the inhibition at 1 µM came out at 133% in the assay on KMS-11 and 127% with NCI-H929. In addition, the results for the inhibition at 10 µM on IGF-1R, in the assay with Colo205 and in the assay with AsPC-1 were 102%, 123% and 117%, respectively.

`Cc1ccsc1C(=O)Nc1cc(CN(CCO)CCN2CCOCC2)ccc1/C=C/c1n[nH]c2ccccc12` [Compound 253, (E)-N-{5-[N-(2-hydroxyethyl)-2-(morpholin-4-yl)ethylaminomethyl]-2-[2-(1H-indazol-3-yl)vinyl]phenyl}-3-methylthiophene-2-carboxamide]: the values for the inhibition at 1 µM in the assay with KMS-11 and in the assay with NCI-H929 were 109% and 119%, respectively. Besides, the inhibition at 10 µM at IGF-1R came to 98.7%; with Colo205, 122%; in the assay on AsPC-1 it was 100%.

`CCN(CC)CCOc1ccc(/C=C/c2n[nH]c3ccccc23)c(NC(=O)c2sccc2C)c1OC` [Compound 263, (E)-N-{3-(2-diethylaminoethoxy)-6-[2-(1H-indazol-3-yl)vinyl]-2-methoxymephenyl}-3-methylthiophene-2-carboxamide]: the “cytostatic rate (%) KMS-11 (1 μmol/L)” value with KMS-11 is given as 126.2%. Also, at IGF-1R, the “inhibitory activity (%) at 10 μmol/L” value was found to be 100.9%. Moreover, the “cytostatic rate (%) H929 (1 μmol/L)” value in the assay with NCI-H929 is on record as 116.0%. In addition, the “cytostatic rate (%) Colo205 (10 μmol/L)” value in the assay with Colo205 worked out at 120.5%. The “cytostatic rate (%) AsPC-1 (10 μmol/L)” value in the assay on AsPC-1 is listed as 103.4%.

Consider `Nc1cccc2c1C(=O)N(c1cc(C(=O)N3CCOCC3)ccc1/C=C/c1n[nH]c3ccccc13)C2=O` [Compound 288, (E)-4-amino-N-{2-[2-(1H-indazol-3-yl)vinyl]-5-(morpholin-4-ylcarbonyl)phenyl}isoindole-1,3-dione], for which the inhibition at 1 µM is 109% with KMS-11 and 118% in the assay on NCI-H929. Further, the figures for the inhibition at 10 µM on IGF-1R, with Colo205 and in the assay with AsPC-1 were 97.9%, 120% and 94.5%, respectively.
